Here are results for 22 compounds from US12448388B2, “PRMT5 inhibitors and uses thereof” (Gilead Sciences, Inc., priority 2023, dated 2025).

The assay concerns HCT116 MTAP-deleted cell lines. In words: Cell viability assay (CellTiter-Glo, 7 days), HCT116 MTAP-deleted. As to conditions: Homo sapiens, HCT-116; cell viability assay, HCT116 MTAP-deleted; class symbols; read-out: CC50. The assay is classed as cell-based. In short, it runs like this: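 PRMT5 inhibitors were serially diluted in DMSO and acoustically spotted as dose-response series into plates before cell seeding. Cells were grown with compound for 7 days at 37 °C, 5% CO2, 90% humidity, then viability was read by CellTiter-Glo luminescence and reported as CC50.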
As for `CN(C(=O)c1cc2c(cc1F)nc(N)c1cncn12)[C@@H]1COc2cc(C#CC34CCC(CC3)OC4)ccc21` [Ff-523, (S)—N-(6-((2-oxabicyclo[2.2.2]octan-4-yl)ethynyl)-2,3-dihydrobenzofuran-3-yl)-4-amino-7-fluoro-N-methylimidazo[1,5-a]quinoxaline-8-carboxamide], the CC50 lay within 100 to 1000 nM.

In the case of `CN(C(=O)c1cc2c(cc1F)nc(N)c1cncn12)[C@@H]1COc2cc(C#CC3C4COCC34)ccc21` (stereo partly drawn) [Ff-524, N-((3S)-6-((3-oxabicyclo[3.1.0]hexan-6-yl)ethynyl)-2,3-dihydrobenzofuran-3-yl)-4-amino-7-fluoro-N-methylimidazo[1,5-a]quinoxaline-8-carboxamide], the CC50 was below 100 nM.

`CN(C(=O)c1cc2c(cc1F)nc(N)c1cncn12)[C@@H]1COc2cc(C#CC3CC(F)(F)C3)ccc21` [Ff-525, (S)-4-amino-N-(6-((3,3-difluorocyclobutyl)ethynyl)-2,3-dihydrobenzofuran-3-yl)-7-fluoro-N-methylimidazo[1,5-a]quinoxaline-8-carboxamide]: the CC50 lay in the range of 100 to 1000 nM.

On to `CN(C(=O)c1ccc2nc(N)c3cncn3c2c1)[C@@H]1COc2cc(C#CC(C)(C)S(C)(=O)=O)ccc21` [Ff-526, (S)-4-amino-N-methyl-N-(6-(3-methyl-3-(methylsulfonyl)but-1-yn-1-yl)-2,3-dihydrobenzofuran-3-yl)imidazo[1,5-a]quinoxaline-8-carboxamide], for which the CC50 fell in the range of 100 to 1000 nM.

Regarding `CN(C(=O)c1ccc2nc(N)c3cncn3c2c1)[C@@H]1COc2cc(C#CC3(O)COC3)ccc21` [Ff-527, (S)-4-amino-N-(6-((3-hydroxyoxetan-3-yl)ethynyl)-2,3-dihydrobenzofuran-3-yl)-N-methylimidazo[1,5-a]quinoxaline-8-carboxamide], the CC50 is 100 to 1000 nM.

Regarding `CN(C(=O)c1ccc2nc(N)c3cncn3c2c1)[C@@H]1COc2cc(C#CC34CCC(CC3)O4)ccc21` [Ff-528, (S)—N-(6-((7-oxabicyclo[2.2.1]heptan-1-yl)ethynyl)-2,3-dihydrobenzofuran-3-yl)-4-amino-N-methylimidazo[1,5-a]quinoxaline-8-carboxamide], the CC50 was 100 to 1000 nM.

With `CC(=O)N1CC(C#Cc2ccc3c(c2)OC[C@H]3N(C)C(=O)c2ccc3nc(N)c4cncn4c3c2)C1` [Ff-529], the CC50 is 100 to 1000 nM.

With `CN(C(=O)c1cc2c(cc1F)nc(N)c1cncn12)[C@@H]1COCc2cc(C#CC3(C)COC3)ccc21` [Ff-530, (S)-4-amino-7-fluoro-N-methyl-N-(7-((3-methyloxetan-3-yl)ethynyl)isochroman-4-yl)imidazo[1,5-a]quinoxaline-8-carboxamide], the cytotoxic concentration (CC50) is below 100 nM.

On to `COC1(C#Cc2ccc3c(c2)OC[C@H]3N(C)C(=O)c2ccc3nc(N)c4cncn4c3c2)CC1` [Ff-531, (S)-4-amino-N-(6-((1-methoxycyclopropyl)ethynyl)-2,3-dihydrobenzofuran-3-yl)-N-methylimidazo[1,5-a]quinoxaline-8-carboxamide], for which the half-maximal cytotoxic concentration (CC50) lay within 100 to 1000 nM.

For the compound `C[C@H](c1ccc(C(F)(F)F)cn1)N(C)C(=O)c1cc2c(cc1F)nc(N)c1cncn12` [Ff-532, (R)-4-amino-7-fluoro-N-methyl-N-(1-(5-(trifluoromethyl)pyridin-2-yl)ethyl)imidazo[1,5-a]quinoxaline-8-carboxamide], the CC50 is below 100 nM.

As to `C[C@@H](c1ccc(C(F)(F)F)cc1F)N(C)C(=O)c1cc2c(cc1F)nc(N)c1cncn12` [Ff-533, (S)-4-amino-7-fluoro-N-(1-(2-fluoro-4-(trifluoromethyl)phenyl)ethyl)-N-methylimidazo[1,5-a]quinoxaline-8-carboxamide], the CC50 lay within 100 to 1000 nM.

Regarding `C[C@H](c1ccc(C(F)(F)F)cc1F)N(C)C(=O)c1cc2c(cc1F)nc(N)c1cncn12` [Ff-534, (R)-4-amino-7-fluoro-N-(1-(2-fluoro-4-(trifluoromethyl)phenyl)ethyl)-N-methylimidazo[1,5-a]quinoxaline-8-carboxamide], the CC50 is below 100 nM.

`COc1cc(C(F)(F)F)ccc1[C@@H](C)N(C)C(=O)c1cc2c(cc1F)nc(N)c1cncn12` [Ff-535, (R)-4-amino-7-fluoro-N-(1-(2-methoxy-4-(trifluoromethyl)phenyl)ethyl)-N-methylimidazo[1,5-a]quinoxaline-8-carboxamide]: the half-maximal cytotoxic concentration (CC50) was in the range of 100 to 1000 nM.

`COc1cc(C(F)(F)F)ccc1[C@H](C)N(C)C(=O)c1cc2c(cc1F)nc(N)c1cncn12` [Ff-536, (S)-4-amino-7-fluoro-N-(1-(2-methoxy-4-(trifluoromethyl)phenyl)ethyl)-N-methylimidazo[1,5-a]quinoxaline-8-carboxamide]: the CC50 was in the range of 100 to 1000 nM.

In the case of `C[C@H](c1ncc(C(F)(F)F)cc1F)N(C)C(=O)c1cc2c(cc1F)nc(N)c1cncn12` [Ff-537, (R)-4-amino-7-fluoro-N-(1-(3-fluoro-5-(trifluoromethyl)pyridin-2-yl)ethyl)-N-methylimidazo[1,5-a]quinoxaline-8-carboxamide], the CC50 was below 100 nM.

Consider `CCN(C(=O)c1cc2c(cc1F)nc(N)c1cncn12)[C@H](C)c1ncc(C(F)(F)F)cc1F` [Ff-538, (R)-4-amino-N-ethyl-7-fluoro-N-(1-(3-fluoro-5-(trifluoromethyl)pyridin-2-yl)ethyl)imidazo[1,5-a]quinoxaline-8-carboxamide], for which the CC50 is below 100 nM.

In the case of `Nc1nc2cc(F)c(C(=O)N3CCO[C@@H]4Cc5cc(C(F)(F)F)cc(F)c5[C@@H]43)cc2n2cncc12` [Ff-539, (4-amino-7-fluoroimidazo[1,5-a]quinoxalin-8-yl)((4aS,9aR)-5-fluoro-7-(trifluoromethyl)-2,3,9,9a-tetrahydroindeno[2,1-b][1,4]oxazin-4(4aH)-yl)methanone], the CC50 is below 100 nM.

Regarding `Nc1nc2cnc(C(=O)N3CCO[C@@H]4Cc5cc(C(F)(F)F)cc(F)c5[C@@H]43)cc2n2cncc12` [Ff-540, (4-aminoimidazo[1,5-a]pyrido[3,4-e]pyrazin-8-yl)((4aS,9aR)-5-fluoro-7-(trifluoromethyl)-2,3,9,9a-tetrahydroindeno[2,1-b][1,4]oxazin-4(4aH)-yl)methanone], the CC50 is 100 to 1000 nM.

As to `CN(C(=O)c1cc2c(cc1F)nc(N)c1cncn12)[C@H](CC1CC1)c1ccc(C(F)(F)F)cn1` [Ff-541, (R)-4-amino-N-(2-cyclopropyl-1-(5-(trifluoromethyl)pyridin-2-yl)ethyl)-7-fluoro-N-methylimidazo[1,5-a]quinoxaline-8-carboxamide], the CC50 was in the range of 100 to 1000 nM.

Consider `CCN(C(=O)c1cc2c(cc1F)nc(N)c1cncn12)[C@H](C)c1ccc(C(F)(F)F)cn1` [Ff-542, (R)-4-amino-N-ethyl-7-fluoro-N-(1-(5-(trifluoromethyl)pyridin-2-yl)ethyl)imidazo[1,5-a]quinoxaline-8-carboxamide], for which the CC50 was below 100 nM.

Consider `CCN(C(=O)c1cc2c(cc1F)nc(N)c1cncn12)[C@@H](C)c1ccc(C(F)(F)F)cn1` [Ff-543, (S)-4-amino-N-ethyl-7-fluoro-N-(1-(5-(trifluoromethyl)pyridin-2-yl)ethyl)imidazo[1,5-a]quinoxaline-8-carboxamide], for which the cytotoxic concentration (CC50) is below 100 nM.

On to `CN(C(=O)c1cc2c(cc1F)nc(N)c1cncn12)[C@@H]1COc2cc(C3CC3)ccc21` [Ff-546, (S)-4-amino-N-(6-cyclopropyl-2,3-dihydrobenzofuran-3-yl)-7-fluoro-N-methylimidazo[1,5-a]quinoxaline-8-carboxamide], for which the CC50 is below 100 nM.

One may read the CC50 as the concentration giving 50% cytotoxicity.
